Measurements reported in US10138233B2, “Imidazole compounds as modulators of FSHR and uses thereof” (Merck Patent GmbH, priority 2013, dated 2018).

Tests used:
[1] = target: T1, FSHR (Homo sapiens, UniProt P23945); assay: EC50 of cyclic AMP production in CHO FSHR cells + EC20 FSH (Assay A); format: cell-based; details: CHO-FSHR-LUC cells, in presence of EC20 FSH, cAMP HTRF, 1 h 37° C.
T1 construct: expressed in transfected cells; host or cells: CHO cells, clone Cho-FSHR-LUC-1-1-43
T1 sequence (P23945 18-695): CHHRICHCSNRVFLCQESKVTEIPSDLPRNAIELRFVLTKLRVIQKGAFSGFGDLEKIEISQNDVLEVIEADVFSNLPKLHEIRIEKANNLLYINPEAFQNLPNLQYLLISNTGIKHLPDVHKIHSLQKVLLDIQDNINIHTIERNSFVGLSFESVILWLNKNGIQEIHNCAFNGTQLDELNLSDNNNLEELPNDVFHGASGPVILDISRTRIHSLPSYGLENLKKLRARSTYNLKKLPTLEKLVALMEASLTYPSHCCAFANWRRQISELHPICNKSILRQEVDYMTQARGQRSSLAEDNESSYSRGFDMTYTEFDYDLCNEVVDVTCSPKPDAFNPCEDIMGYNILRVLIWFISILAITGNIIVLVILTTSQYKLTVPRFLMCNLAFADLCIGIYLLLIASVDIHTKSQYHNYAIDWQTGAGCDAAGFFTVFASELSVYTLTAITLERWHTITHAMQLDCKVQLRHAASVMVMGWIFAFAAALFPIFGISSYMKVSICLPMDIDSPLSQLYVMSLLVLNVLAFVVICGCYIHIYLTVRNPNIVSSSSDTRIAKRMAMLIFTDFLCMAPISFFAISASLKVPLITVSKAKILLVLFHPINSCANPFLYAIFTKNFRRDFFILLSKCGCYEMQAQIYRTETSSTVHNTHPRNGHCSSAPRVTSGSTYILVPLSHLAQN

[2] = target: T2, follicle-stimulating hormone (FSH) receptor (Rattus norvegicus, UniProt P20395); assay: Rat Granulosa EC50 FSH (Assay B); format: cell-based; details: rat granulosa cells, per Yanofsky et al. 2006
T2 construct: Rat Granulosa EC50 FSH (Assay B); endogenous in cells; host or cells: rat granulosa cells
T2 sequence (P20395 18-692): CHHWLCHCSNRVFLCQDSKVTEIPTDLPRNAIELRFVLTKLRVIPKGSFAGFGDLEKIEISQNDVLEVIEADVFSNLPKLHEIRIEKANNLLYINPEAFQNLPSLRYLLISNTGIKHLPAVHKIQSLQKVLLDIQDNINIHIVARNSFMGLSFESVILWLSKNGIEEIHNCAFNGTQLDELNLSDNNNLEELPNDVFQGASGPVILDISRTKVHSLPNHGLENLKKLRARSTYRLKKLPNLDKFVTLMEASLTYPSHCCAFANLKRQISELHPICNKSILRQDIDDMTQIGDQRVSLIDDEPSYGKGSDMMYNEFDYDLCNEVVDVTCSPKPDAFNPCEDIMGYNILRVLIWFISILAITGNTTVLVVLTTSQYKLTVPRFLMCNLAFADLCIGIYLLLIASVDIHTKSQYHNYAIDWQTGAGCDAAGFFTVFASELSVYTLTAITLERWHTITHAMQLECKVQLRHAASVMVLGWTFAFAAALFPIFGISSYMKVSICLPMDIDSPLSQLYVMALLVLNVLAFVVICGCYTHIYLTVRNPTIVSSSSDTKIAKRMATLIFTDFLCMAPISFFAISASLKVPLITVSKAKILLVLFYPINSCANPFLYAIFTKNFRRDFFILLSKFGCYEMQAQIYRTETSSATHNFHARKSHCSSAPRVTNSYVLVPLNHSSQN

SMILES	EC50 [1]	EC50 [2]
COc1cc2c(cc1CC(C)C)-n1c(-c3ccc(C)s3)nc(C(=O)N(C)C(C)(C)C)c1CC2 [Compound 96, 8-Isobutyl-7-methoxy-1-(5-methyl-thiophen-2-yl)-4,5-dihydro-imidazo[1,5-a]quinoline-3-carboxylic acid tert-butyl-methyl-amide]	100 to 1000 nM	1000 to 5000 nM
COc1cc2c(cc1-c1cnn(C)c1)-n1c(-c3cccs3)nc(C(=O)N3CCOCC3(C)C)c1CC2 [Compound 75, (3,3-Dimethyl-morpholin-4-yl)-[7-methoxy-8-(1-methyl-1H-pyrazol-4-yl)-1-thiophen-2-yl-4,5-dihydro-imidazo[1,5-a]quinolin-3-yl]-methanone]	< 100 nM	100 to 1000 nM
[2H]C([2H])([2H])Oc1cc2c(cc1CC(C)C)-n1c(-c3ccsc3)nc(C(=O)N3CCOCC3(C)C)c1CC2 [Compound 41, (3,3-Dimethyl-morpholin-4-yl)-(8-isobutyl-7-methoxy-d3-1-thiophen-3-yl-4,5-dihydro-imidazo[1,5-a]quinolin-3-yl)-methanone]	< 100 nM	1000 to 5000 nM
COc1cc2c(cc1OC(C)C)-n1c(-c3ccsc3)nc(C(=O)N(C)C(C)(C)C)c1CO2 [Compound 135, 8-Isopropoxy-7-methoxy-1-thiophen-3-yl-4H-5-oxa-2,9b-diaza-cyclopenta[a]naphthalene-3-carboxylic acid tert-butyl-methyl-amide]	< 100 nM	> 5000 nM
COc1cc2c(cc1CC(C)C)-n1c(-c3ccc(F)s3)nc(C(=O)N(C)C(C)(C)C)c1CC2 [Compound 21, 1-(5-Fluoro-thiophen-2-yl)-8-isobutyl-7-methoxy-4,5-dihydro-imidazo[1,5-a]quinoline-3-carboxylic acid tert-butyl-methyl-amide]	< 100 nM	1000 to 5000 nM
COc1cc2c(cc1OC(C)C)-n1c(-c3cccs3)nc(C(=O)N3CCOCC3(C)C)c1CO2 [Compound 139, (3,3-Dimethyl-morpholin-4-yl)-(8-isopropoxy-7-methoxy-1-thiophen-2-yl-4H-5-oxa-2,9b-diaza-cyclopenta[a]naphthalen-3-yl)-methanone]	< 100 nM	100 to 1000 nM
[2H]C([2H])([2H])Oc1cc2c(cc1CC(C)C)-n1c(-c3cccs3)nc(C(=O)N(C)C(C)(C)C)c1CC2 [Compound 53, 8-Isobutyl-7-methoxy-d3-1-thiophen-2-yl-4,5-dihydro-imidazo[1,5-a]quinoline-3-carboxylic acid tert-butyl-methyl-amide]	< 100 nM	1000 to 5000 nM
COc1cc2c(cc1OC(C)C)-n1c(-c3cccs3)nc(C(=O)N(C)C(C)(C)C)c1CC2 [Compound 11, 8-Isopropoxy-7-methoxy-1-thiophen-2-yl-4,5-dihydro-imidazo[1,5-a]quinoline-3-carboxylic acid tert-butyl-methyl-amide]	100 to 1000 nM	> 5000 nM
COc1cc2c(cc1OC(C)C)-n1c(-c3ccsc3)nc(C(=O)N3CCCN(C(=O)C4CCC4)CC3)c1CC2 [Compound 6]	< 100 nM	< 100 nM
